Legend:
[1] = system: Human newborn dermal fibroblasts (NB1RBG); assay: Inhibitory activity on the extracellular matrices production of fibroblasts with TGF-β, dye (Crystal Violet) staining method; format: cell-based; details: Fibroblast, 120 h
Procedure: (§1) Human newborn dermal fibroblasts (NB1RBG) (obtained from the Institute of Physical and Chemical Research) was subcultured in DMEM medium containing 10 % fetal bovine serum for provision to the test.
(§2) 2×10^4 NB1RBG cells per well were incubated in flat-bottomed 96-well microtiter plates containing 100 μl/well of each of DMEM media each containing 1 % fetal bovine serum and containing one of the test samples and TGF-β (5 ng/ml), at 37° C.-5 % CO2 for 5 days. A group not containing any test sample or TGF-β was also prepared, and incubation thereof was carried out at the same time with the test groups. After the completion of the incubation, the flat-bottomed 96-well microtiter plates on which the adhered cells and the extracellular matrices were adhered were stained with the following two methods for evaluation, respectively.
First, the culture supernatants were removed, the wells were washed with phosphate-buffered physiological saline, 100 μl/well of 0.05 % Crystal Violet-20 % ethanol staining solution was added, and the mixtures were left alone at room temperature for 10 minutes. Then, the plates were washed with flowing water and air dried, the remaining Crystal Violet was dissolved with 100 μl/well of methanol, and the absorbance at O.D. 570-690 was measured by a plate reader. The inhibition percentages of the production of extracellular matrices in an unstimulating state and in a TGF-β-stimulating state were calculated according to the following equations.
(§3) The inhibition percentage of the production of extracellular matrices in an unstimulating state (%) [formula] The inhibition percentage of the production of extracellular matrices in a TGF-β-stimulating state (%) [formula] A: The absorbance of a group containing only the solvent with which the test sample was prepared, and not containing TGF-β.
B: The absorbance of a group containing a test sample, but not containing TGF-β.
C: The absorbance of a group containing the solvent with which the test sample was prepared, and TGF-β.
D: The absorbance of a group containing a test sample and TGF-β.

[2] = system: Human newborn dermal fibroblasts (NB1RBG); assay: Inhibitory activity on the extracellular matrices production of fibroblasts with TGF-β, collagen staining method (anti-human type I collagen antibody; type I collagen sedimentation); format: cell-based; details: Fibroblast, 120 h
Excerpt: Test samples used were Intin-koo extract (Preparation example 1), Forsythia suspensa VAHL. extract (Preparation example 2), Sophora flavescens AITON. extract (Preparation example 3), Rheum palmatum L. extract (Preparation example 4), Glycyrrhiza alabra L. var. glandulifera Regel et Herder extract (Preparation example 5), Goboosi extract with water (Preparation example 6), Goboosi extract with ethanol (Preparation example 7), zhimu extract (Preparation example 8), Dokkatu extract (Preparation example 9), mutong extract (Preparation example 10), soozyutu extract (Preparation example 11), o-phenanthroline (produced by Dojin Chemical Co.: special grade chemical), 2,2'-dipyridyl (produced by Aldrich Chemical Co.) and malotilate (extracted from Kantec tablet produced by Daiichi Pharmaceutical Co.).
as §1, §2
(b) Staining with anti-collagen antibody
First, the culture supernatants were removed, the wells were washed with phosphate-buffered physiological saline, and fixation was carried out with methanol under ice cooling for 10 minutes. Then, blocking was made with milk protein solution, Block Ace (produced by DAINIPPON PHARMACEUTICAL CO.), and rabbit anti-human type I collagen antibody (produced by CHEMICON CO.), biotin-labeled anti-rabbit immunoglobulin (produced by Amersham CO.) and avidin-biotin-labeled peroxidase complex (produced by Amersham CO.) were successively reacted to enzyme-label the sedimented type I collagen. 100 μl/well of 0.1 M citric acid phosphate buffer (pH 4.0) containing 2.5 mM 2,2'-azino-bis(3-ethylbenzothia-zoline-6-sulfate) (produced by SIGMA CO.) and 0.015 % H2 O2 was reacted therewith, and one hour later, absorbance at O.D. 415 was measured by a plate reader. The inhibition percetages of the type I collagen sedimentation in an unstimulating state and in a TGF-β-stimulating state were calculated according to the following equations.
as §3, with “matrices in TGF-β-stimulating state” for “matrices in a TGF-β-stimulating state”, “(%) [formula] E: The absorbance” for “(%) [formula] A: The absorbance”
F: The absorbance of a group containing a test sample, but not containing TGF-β.
G: The absorbance of a group containing the solvent with which the test sample was prepared, and TGF-β.
H: The absorbance of a group containing a test sample and TGF-β.

[3] = system: dermal fibrosis induced with bleomycin; assay: Inhibitory activity on the production of collagen in dermal fibrosis model induced with bleomycin; format: in vivo, Hos:hr-1 male hairless mice; details: bleomycin 10 mg/kg/day i.p. 10 days, day 30
Procedure: Hos:hr-1 male hairless mice (5 weeks old) were used.
10 mg/kg/day portions of bleomycin were intraperitoneally administered to the hairless mice for 10 successive days. 0.1 ml Portions of ethanol solutions or Vaseline ointments of the Sophora flavescens AITON. extraction, the Rheum palmatum L. extract, o-phenanthroline and malotilate were applied onto the back skins every day from the start of the test, respectively. 30 Days later from the start of the test, the back skins were excised. The amounts of collagen in the excised skins were assayed using hydroxyproline amount as an index.
The inhibition percentage of dermal fibrosis with bleomycin was caluculated according to the following equation.
Inhibition percentage of dermal fibrosis (%) [formula] J: Hydroxyproline amount in the untreated group K: Hydroxyproline amount in the group of bleomycin administration+application of the base alone
L: Hydroxyproline amount in the group of bleomycin administration+application of the drug

[4] = read-out: Inhibition percentage of the extracellular matrices production, dye staining method, TGF-β (+)
[5] = read-out: Inhibition percentage of the extracellular matrices production, dye staining method, TGF-β (-)
[6] = read-out: Inhibition percentage of the extracellular matrices production, collagen staining method, TGF-β (+)
[7] = read-out: Inhibition percentage of the extracellular matrices production, collagen staining method, TGF-β (-)
[8] = 1 × 10^-4 M, TGF-β 5 ng/ml, 5 days, read-out: Inhibition percentage of the extracellular matrices production, dye staining method, TGF-β (+)
[9] = 1 × 10^-4 M, unstimulated, 5 days, read-out: Inhibition percentage of the extracellular matrices production, dye staining method, TGF-β (-)
[10] = 1 × 10^-5 M, TGF-β 5 ng/ml, 5 days, read-out: Inhibition percentage of the extracellular matrices production, dye staining method, TGF-β (+)
[11] = 1 × 10^-5 M, unstimulated, 5 days, read-out: Inhibition percentage of the extracellular matrices production, dye staining method, TGF-β (-)
[12] = 1 × 10^-6 M, TGF-β 5 ng/ml, 5 days, read-out: Inhibition percentage of the extracellular matrices production, dye staining method, TGF-β (+)
[13] = 1 × 10^-6 M, unstimulated, 5 days, read-out: Inhibition percentage of the extracellular matrices production, dye staining method, TGF-β (-)
[14] = 1 × 10^-4 M, TGF-β 5 ng/ml, 5 days, read-out: Inhibition percentage of the extracellular matrices production, collagen staining method, TGF-β (+)
[15] = 1 × 10^-4 M, unstimulated, 5 days, read-out: Inhibition percentage of the extracellular matrices production, collagen staining method, TGF-β (-)
[16] = 1 × 10^-5 M, TGF-β 5 ng/ml, 5 days, read-out: Inhibition percentage of the extracellular matrices production, collagen staining method, TGF-β (+)
[17] = 1 × 10^-5 M, unstimulated, 5 days, read-out: Inhibition percentage of the extracellular matrices production, collagen staining method, TGF-β (-)
[18] = 1 × 10^-6 M, TGF-β 5 ng/ml, 5 days, read-out: Inhibition percentage of the extracellular matrices production, collagen staining method, TGF-β (+)
[19] = 1 × 10^-6 M, unstimulated, 5 days, read-out: Inhibition percentage of the extracellular matrices production, collagen staining method, TGF-β (-)

SMILES | inhibition at 100 µM [1, 8] | inhibition at 100 µM [1, 9] | inhibition at 10 µM [1, 10] | inhibition at 10 µM [1, 11] | inhibition at 1 µM [1, 12] | inhibition at 1 µM [1, 13] | inhibition at 100 µM [2, 14] | inhibition at 100 µM [2, 15] | inhibition at 10 µM [2, 16] | inhibition at 10 µM [2, 17] | inhibition at 1 µM [2, 18] | inhibition at 1 µM [2, 19] | Hydroxyproline amount per weight of dried skin ([3]; 5% applied to back skin daily) | Inhibition percentage of dermal fibrosis ([3]; 5% applied to back skin daily) | Hydroxyproline amount per weight of dried skin ([3]; 10% applied to back skin daily) | Inhibition percentage of dermal fibrosis ([3]; 10% applied to back skin daily) | also measured
c1ccc(-c2ccccn2)nc1 [2,2'-Dipyridyl, 2,2'-dipyridyl] | – | – | – | – | – | – | – | – | – | – | – | – | – | – | – | – | inhibition at 1 µM [1, 4]: 7%; inhibition at 10 µM [1, 4]: 7%; inhibition at 100 µM [1, 4]: 84%; inhibition at 1 µM [1, 5]: 5%; inhibition at 10 µM [1, 5]: 25%; inhibition at 100 µM [1, 5]: 44%; inhibition at 1 µM [2, 6]: 14%; inhibition at 10 µM [2, 6]: 30%; inhibition at 100 µM [2, 6]: 77%; inhibition at 1 µM [2, 7]: 10%; inhibition at 10 µM [2, 7]: 15%; inhibition at 100 µM [2, 7]: 18%
CC(C)OC(=O)C(C(=O)OC(C)C)=C1SC=CS1 [Malotilate, malotilate] | 92% | 20% | 53% | 23% | 18% | 21% | 98% | 7% | 68% | 6% | 20% | 9% | 1.66 ± 0.25 µg/mg | 52.2% | 1.47 ± 0.19 µg/mg | 80.6% | –
c1cnc2c(c1)ccc1cccnc12 [o-Phenanthroline, o-phenanthroline] | 95% | 0% | 86% | 0% | 1% | 7% | 100% | 20% | 90% | 16% | 27% | 11% | 1.72 ± 0.16 µg/mg | 43.3% | 1.43 ± 0.10 µg/mg | 86.6% | –

Source: US6068845A, “Inhibition of abnormal accumulation of extra-cellular matrices” (Institute for Advanced Skin Research Inc., priority 1996, dated 2000)
